Assay results reported in ChEMBL document CHEMBL1201862, “PubChem BioAssay data set” (2004).
Active and inactive are the calls of the source.

Columns and labels:
[1] = target: Heat shock protein HSP 90-alpha (Homo sapiens, UniProt P07900); assay type: functional, organism-based
[2] = target: FAD-linked sulfhydryl oxidase ALR (Homo sapiens, UniProt P55789); assay: inhibitors of human ALR sulfhydryl oxidase, dose response, biochemical, H2O2 detection, luminescence, cherry-pick (AID 493248)
Fatty acid synthase [3] = target: T1, Fatty acid synthase (Homo sapiens, UniProt P49327); assay: FAS thioesterase domain inhibitors, dose response, biochemical, endpoint fluorescence intensity, uHTS hits (AID 624327); assay type: functional;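 further: fluorescence from hydrolysis of an O-methyl fluorescein acyl ester substrate by the enzyme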
T1 sequence (P49327 whole entry, the tested form may be a part): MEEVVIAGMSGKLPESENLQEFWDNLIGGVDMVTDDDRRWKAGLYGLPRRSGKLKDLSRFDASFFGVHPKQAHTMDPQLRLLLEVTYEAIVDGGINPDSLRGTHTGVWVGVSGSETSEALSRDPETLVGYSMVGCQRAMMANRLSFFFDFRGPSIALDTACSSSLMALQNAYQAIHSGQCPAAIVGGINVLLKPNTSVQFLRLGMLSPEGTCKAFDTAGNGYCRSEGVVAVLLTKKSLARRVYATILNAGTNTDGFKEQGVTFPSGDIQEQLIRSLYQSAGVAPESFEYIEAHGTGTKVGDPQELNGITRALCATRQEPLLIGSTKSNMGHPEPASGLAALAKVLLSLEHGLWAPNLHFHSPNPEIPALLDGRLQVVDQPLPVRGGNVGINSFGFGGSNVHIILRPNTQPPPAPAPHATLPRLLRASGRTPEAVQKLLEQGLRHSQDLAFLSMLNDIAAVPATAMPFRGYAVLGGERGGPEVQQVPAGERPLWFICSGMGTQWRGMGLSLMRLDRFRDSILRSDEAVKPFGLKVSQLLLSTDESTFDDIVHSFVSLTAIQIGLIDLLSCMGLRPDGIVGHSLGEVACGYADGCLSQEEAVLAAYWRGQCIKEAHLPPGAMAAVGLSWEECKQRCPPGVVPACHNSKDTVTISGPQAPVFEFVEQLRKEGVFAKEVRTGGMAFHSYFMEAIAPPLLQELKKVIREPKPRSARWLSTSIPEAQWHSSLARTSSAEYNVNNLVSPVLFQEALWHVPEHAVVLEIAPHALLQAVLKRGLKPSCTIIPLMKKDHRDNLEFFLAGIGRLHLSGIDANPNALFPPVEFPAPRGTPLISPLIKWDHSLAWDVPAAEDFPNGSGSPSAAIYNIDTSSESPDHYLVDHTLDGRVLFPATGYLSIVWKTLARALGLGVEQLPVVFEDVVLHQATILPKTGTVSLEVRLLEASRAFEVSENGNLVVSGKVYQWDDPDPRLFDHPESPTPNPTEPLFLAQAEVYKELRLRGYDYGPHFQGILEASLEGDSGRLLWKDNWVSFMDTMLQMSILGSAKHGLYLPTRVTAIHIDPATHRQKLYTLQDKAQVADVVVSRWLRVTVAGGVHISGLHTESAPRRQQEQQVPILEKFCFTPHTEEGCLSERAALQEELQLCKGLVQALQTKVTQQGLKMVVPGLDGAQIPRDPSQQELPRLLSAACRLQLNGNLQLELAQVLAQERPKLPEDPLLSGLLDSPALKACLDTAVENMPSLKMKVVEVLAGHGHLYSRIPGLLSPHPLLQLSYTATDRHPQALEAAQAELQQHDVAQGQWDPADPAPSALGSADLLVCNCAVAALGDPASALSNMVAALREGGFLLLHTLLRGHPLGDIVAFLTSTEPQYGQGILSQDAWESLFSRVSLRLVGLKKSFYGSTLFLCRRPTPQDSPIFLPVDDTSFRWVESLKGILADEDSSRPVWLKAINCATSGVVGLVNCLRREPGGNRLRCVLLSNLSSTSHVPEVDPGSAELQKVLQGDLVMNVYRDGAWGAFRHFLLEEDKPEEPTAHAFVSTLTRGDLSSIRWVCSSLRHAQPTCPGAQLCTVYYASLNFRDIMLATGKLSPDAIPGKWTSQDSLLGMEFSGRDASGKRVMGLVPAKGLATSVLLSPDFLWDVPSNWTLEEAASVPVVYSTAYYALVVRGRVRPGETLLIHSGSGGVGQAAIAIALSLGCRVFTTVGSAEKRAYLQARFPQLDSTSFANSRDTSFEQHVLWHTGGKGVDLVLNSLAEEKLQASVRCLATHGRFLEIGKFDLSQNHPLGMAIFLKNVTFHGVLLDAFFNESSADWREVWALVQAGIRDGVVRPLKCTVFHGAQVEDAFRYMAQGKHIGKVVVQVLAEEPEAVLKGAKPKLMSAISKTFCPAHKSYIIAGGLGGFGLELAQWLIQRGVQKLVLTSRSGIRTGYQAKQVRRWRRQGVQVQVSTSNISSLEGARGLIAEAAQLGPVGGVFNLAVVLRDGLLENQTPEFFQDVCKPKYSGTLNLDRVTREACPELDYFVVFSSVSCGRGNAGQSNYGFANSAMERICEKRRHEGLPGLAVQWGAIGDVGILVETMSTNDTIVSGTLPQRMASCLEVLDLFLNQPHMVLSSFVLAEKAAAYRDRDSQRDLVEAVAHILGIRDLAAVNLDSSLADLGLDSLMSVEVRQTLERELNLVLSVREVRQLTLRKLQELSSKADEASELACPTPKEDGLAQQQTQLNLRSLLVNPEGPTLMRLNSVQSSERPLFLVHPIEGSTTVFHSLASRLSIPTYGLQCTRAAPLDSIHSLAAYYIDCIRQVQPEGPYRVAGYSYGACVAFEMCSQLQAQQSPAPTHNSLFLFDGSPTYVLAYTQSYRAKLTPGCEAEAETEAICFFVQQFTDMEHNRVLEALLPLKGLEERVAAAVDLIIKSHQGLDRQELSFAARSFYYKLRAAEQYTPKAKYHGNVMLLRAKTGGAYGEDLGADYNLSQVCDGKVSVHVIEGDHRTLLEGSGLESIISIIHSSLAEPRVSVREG

Fatty acid synthase [4] = target: T1, Fatty acid synthase; assay: FAS thioesterase domain inhibitors, dose response, biochemical, kinetic fluorescence intensity (AID 624326); assay type: functional;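 further: rate of fluorescence rise from hydrolysis of a fluorogenic O-methyl fluorescein ester substrate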
[5] = Luminescence Cell-Based Dose Response HTS to Identify Activators of Luciferase Translation or Activity in H4 […] Cells. [Related pubchem assays: 1829 (Project Summary), 1814 (Primary HTS)]; assay type: functional
H4 = assay: Luminescence Cell-Based Dose Response HTS to Identify Activators of 5'UTR Stem-Loop Driven Prion Protein mRNA Translation in H4 Neuroglioblastoma Cells. [Related pubchem assays: 1829 (Project Summary), 1814 (Primary HTS)]; assay type: functional; settings: Homo sapiens
[6] = Luminescence Cell-Based Dose Confirmation HTS to Identify Activators of 5'UTR Stem-Loop Driven Alpha-Synuclein mRNA Translation in H4 Neuroglioblastoma Cells. [Related pubchem assays: 1829 (Project Summary), 1814 (Primary HTS)]; assay type: functional
[7] = growth suppression of beta-catenin-knockout colon cells, dose response, cell-based, HCT116, human colon tumor (AID 1045); assay type: functional;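 further: HCT116 colon tumor cells with beta catenin knocked out; cells exposed to compound for 60 hours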
[8] = growth suppression of PTEN-null colon cells, dose response, cell-based, HCT116 PTEN knockout (AID 1047); assay type: functional;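 further: HCT116 colon tumor cells with PTEN knocked out; cells exposed to compound for 60 hours before readout; potency for loss of cell viability measured by luminescence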
[9] = target: Luciferin 4-monooxygenase (Photinus pyralis, UniProt P08659); assay: firefly luciferase enzyme inhibitors, dose response, biochemical, luminescence (AID 1891)
Luciferin 4-monooxygenase, sequence (P08659 whole entry): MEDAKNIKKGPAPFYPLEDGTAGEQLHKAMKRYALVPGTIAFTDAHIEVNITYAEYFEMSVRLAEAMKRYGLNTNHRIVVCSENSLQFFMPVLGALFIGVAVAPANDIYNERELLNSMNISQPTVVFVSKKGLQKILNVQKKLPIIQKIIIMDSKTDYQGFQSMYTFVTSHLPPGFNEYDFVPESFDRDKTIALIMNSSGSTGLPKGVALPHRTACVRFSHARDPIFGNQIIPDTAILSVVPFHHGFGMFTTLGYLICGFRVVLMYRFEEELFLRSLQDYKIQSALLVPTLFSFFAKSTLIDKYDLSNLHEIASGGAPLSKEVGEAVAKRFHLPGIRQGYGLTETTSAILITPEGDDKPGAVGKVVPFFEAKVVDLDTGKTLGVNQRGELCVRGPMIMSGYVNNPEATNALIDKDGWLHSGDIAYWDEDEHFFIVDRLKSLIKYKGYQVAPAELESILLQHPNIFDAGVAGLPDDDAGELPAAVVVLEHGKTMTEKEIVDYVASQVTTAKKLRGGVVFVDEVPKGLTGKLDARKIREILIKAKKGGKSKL

[10] = Luminescence Cell-Based Dose Confirmation HTS to Identify Inhibitors of Platelet Dense Granule Release. [Related pubchem assays: 1663 (Primary HTS), 1678 (Summary of Project)]; assay type: functional
Cytochrome P450 2C9 = Cytochrome P450 2C9 (Homo sapiens, UniProt P11712)
Cytochrome P450 2C9, sequence (P11712 whole entry): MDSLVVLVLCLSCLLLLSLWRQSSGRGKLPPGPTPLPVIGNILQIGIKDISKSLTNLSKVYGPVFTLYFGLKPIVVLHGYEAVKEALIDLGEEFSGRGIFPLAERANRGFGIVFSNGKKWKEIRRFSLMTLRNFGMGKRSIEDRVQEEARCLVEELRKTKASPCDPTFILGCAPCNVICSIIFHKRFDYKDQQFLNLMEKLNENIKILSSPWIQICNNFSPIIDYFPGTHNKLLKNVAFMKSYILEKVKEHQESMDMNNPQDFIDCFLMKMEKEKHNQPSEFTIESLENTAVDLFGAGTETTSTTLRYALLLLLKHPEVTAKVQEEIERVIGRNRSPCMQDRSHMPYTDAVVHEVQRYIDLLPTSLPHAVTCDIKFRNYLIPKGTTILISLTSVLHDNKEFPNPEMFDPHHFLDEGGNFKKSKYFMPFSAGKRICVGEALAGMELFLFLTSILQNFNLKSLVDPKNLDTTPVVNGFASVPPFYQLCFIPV

Cytochrome P450 3A4 = Cytochrome P450 3A4 (Homo sapiens, UniProt P08684);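 further: CYP3A4 tested as one member of a cytochrome P450 panel screen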
Cytochrome P450 3A4, sequence (P08684 whole entry): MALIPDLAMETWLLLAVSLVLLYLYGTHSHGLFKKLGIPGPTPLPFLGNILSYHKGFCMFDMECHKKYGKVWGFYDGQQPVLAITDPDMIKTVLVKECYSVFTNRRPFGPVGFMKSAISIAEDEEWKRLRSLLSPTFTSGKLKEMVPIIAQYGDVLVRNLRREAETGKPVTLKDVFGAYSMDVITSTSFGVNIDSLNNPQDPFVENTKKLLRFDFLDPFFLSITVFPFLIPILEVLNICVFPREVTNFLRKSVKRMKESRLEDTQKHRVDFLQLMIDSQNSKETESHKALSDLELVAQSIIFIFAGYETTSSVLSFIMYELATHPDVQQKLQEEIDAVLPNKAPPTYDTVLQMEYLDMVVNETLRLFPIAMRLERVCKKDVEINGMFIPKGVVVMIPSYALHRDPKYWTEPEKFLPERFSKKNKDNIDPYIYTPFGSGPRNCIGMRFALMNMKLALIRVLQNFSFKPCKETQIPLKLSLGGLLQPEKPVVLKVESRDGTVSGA

[11] = cytotoxicity toward DRD oncogenic fibroblasts, dose response, cell-based, non-viral oncogenic, luminescence (AID 1934); assay type: functional; settings: Homo sapiens
BJ [12] = assay: cells; assay type: functional, cell-based; settings: Homo sapiens
BJ [13] = assay: cytotoxicity toward BJ-TERT fibroblasts, dose response, cell-based, RAS-independent, luminescence (AID 1933); assay type: functional; settings: Homo sapiens
BJ [14] = assay: cytotoxicity toward BJ-TERT-LT-ST fibroblasts, dose response, cell-based, RAS-independent, luminescence (AID 1935); assay type: functional; settings: Homo sapiens;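 further: BJ fibroblasts immortalized with TERT plus LT and ST oncogenes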
Paired box protein Pax-8 = Paired box protein Pax-8 (Homo sapiens, UniProt Q06710); assay: inhibitors of PAX8-driven TPO luciferase reporter, dose response, RMG-I cells, cherry-pick (AID 687027); assay type: functional, cell-based;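 further: luciferase reporter driven by Pax8 target thyroperoxidase promoter measured by SteadyGlo luminescence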
Paired box protein Pax-8, sequence (Q06710 whole entry): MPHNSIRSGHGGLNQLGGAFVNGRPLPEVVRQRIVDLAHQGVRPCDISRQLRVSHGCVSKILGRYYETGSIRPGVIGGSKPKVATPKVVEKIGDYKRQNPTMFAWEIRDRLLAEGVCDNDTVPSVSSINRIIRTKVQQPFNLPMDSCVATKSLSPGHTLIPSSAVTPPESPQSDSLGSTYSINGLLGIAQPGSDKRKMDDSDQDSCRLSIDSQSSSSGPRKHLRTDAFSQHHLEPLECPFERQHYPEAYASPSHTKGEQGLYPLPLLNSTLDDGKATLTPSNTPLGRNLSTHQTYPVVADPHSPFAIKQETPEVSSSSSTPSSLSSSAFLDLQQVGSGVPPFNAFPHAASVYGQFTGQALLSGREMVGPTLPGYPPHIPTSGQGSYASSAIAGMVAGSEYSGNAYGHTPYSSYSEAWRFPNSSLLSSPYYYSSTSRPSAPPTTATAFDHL

[15] = cytotoxicity toward NIH3T3 fibroblasts, dose response, counter-screen, cell-based, ATP luminescence, mouse fibroblasts (AID 2010); assay type: functional;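 further: cells exposed to compound for about 90 hours before reading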
[16] = inhibitors of intracellular T. cruzi replication, confirmation, NIH3T3 host cells, beta-gal luminescence (AID 2044); assay type: functional, cell-based;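 further: intracellular parasites grown in NIH/3T3 mouse fibroblasts as host cells; luminescent beta-galactosidase reporter signal from transgenic T. cruzi replicating inside host cells; inhibitors lower the luminescence signal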
Cytochrome P450 1A2 = target: T2, Cytochrome P450 1A2 (Homo sapiens, UniProt P05177);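 further: PubChem cytochrome P450 panel assay, CYP1A2 panel member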
T2 sequence (P05177 whole entry): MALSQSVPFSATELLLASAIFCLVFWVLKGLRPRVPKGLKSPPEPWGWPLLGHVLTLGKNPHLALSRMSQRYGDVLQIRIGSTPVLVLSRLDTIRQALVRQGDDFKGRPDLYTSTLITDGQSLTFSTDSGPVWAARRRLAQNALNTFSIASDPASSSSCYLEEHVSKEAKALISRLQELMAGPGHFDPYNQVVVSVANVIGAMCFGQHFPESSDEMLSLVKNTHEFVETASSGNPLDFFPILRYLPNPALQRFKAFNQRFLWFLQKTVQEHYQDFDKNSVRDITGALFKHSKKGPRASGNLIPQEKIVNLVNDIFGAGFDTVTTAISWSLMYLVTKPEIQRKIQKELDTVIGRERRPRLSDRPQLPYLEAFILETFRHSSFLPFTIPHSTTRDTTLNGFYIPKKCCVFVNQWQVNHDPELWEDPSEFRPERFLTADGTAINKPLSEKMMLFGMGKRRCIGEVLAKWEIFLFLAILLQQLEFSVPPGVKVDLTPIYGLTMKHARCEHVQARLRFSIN

Cytochrome P450 2C19 = Cytochrome P450 2C19 (Homo sapiens, UniProt P33261); assay: Cytochrome panel assay with activity outcomes. Panel member name: p450-cyp2c19 Compounds with AC50 equal or less than 10 uM are considered active; assay type: functional; settings: read-out: AC50
[17] = NIH-3T3 fibroblast cytotoxicity, dose response, cytotoxicity control, cell-based, fluorescence, Alamar Blue, secondary assay (AID 2327); assay type: functional;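 further: NIH-3T3 mouse fibroblasts cultured with fluconazole at 8 µg/mL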

FAD-linked sulfhydryl oxidase ALR, sequence (P55789 whole entry, the tested form may be a part): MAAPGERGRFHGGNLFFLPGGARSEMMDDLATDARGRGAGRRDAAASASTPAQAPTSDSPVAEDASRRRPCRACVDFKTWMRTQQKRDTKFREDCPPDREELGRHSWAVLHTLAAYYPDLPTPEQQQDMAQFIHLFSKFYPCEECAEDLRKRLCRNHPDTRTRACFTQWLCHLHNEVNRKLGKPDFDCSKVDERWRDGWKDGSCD

O=C(OCC(=O)N1CCN(C(=O)c2ccco2)CC1)c1cc(-c2ccccc2)nc2ccccc12
AC50 [1]: 4.24 µM (active)

COC(=O)c1ccc(CSc2nc3cc(C)ccc3[nH]2)o1
AC50 [2]: 2.71 µM (active)

O=C(COC(=O)c1cc([N+](=O)[O-])ccc1N1CCOCC1)Nc1ccccc1OC(F)F
IC50 (Fatty acid synthase [3]): 4.73 µM (active)
IC50 (Fatty acid synthase [4]): 5.1 µM (active)

CCOC(=O)c1ccc(Nc2nnc(C)c3ccccc23)cc1
EC50 [5]: 18.6 µM (active)
EC50 (H4): 16.9 µM (active)
EC50 [6]: 14.4 µM (active)

O=C(/C=C/c1ccc(-c2ccccc2[N+](=O)[O-])o1)c1ccccc1
EC50 [7]: 22.3 µM (active)
EC50 [8]: 22.5 µM (active)

CN(C)c1oc(-c2ccco2)nc1C#N
EC50 [9]: > 112 µM (not active)
EC50 [10]: > 112 µM (not active)

O=C(NCCC(=O)N(CCc1ccccc1)Cc1ccccc1)c1ccc([N+](=O)[O-])cc1
IC50 (Fatty acid synthase [3]): 8.21 µM (active)
IC50 (Fatty acid synthase [4]): 8.92 µM (active)

Brc1ccc2nc(-c3cccs3)c(NCC3CCCO3)n2c1 (stereo not given)
EC50 [5]: 9.6 µM (active)
EC50 (H4): 17.5 µM (active)
EC50 [6]: 18.9 µM (active)

O=C(O)c1cc(O)ccc1NC(=O)c1cccc2ccccc12
AC50 [2]: 3.41 µM (active)

Cc1ccc(C(=O)NC(=S)Nc2cc(-c3nc4ccccc4s3)ccc2C)cc1
AC50 (Cytochrome P450 2C9): 1.78 µM (inconclusive)
AC50 (Cytochrome P450 3A4): 10 µM (inconclusive)
EC50 [7]: 22 µM (active)
EC50 [8]: 26.9 µM (active)

OC(CCCN1CCC(O)(c2ccc(Cl)cc2)CC1)c1ccc(F)cc1 (stereo not given) [HYDROXYHALOPERIDOL]
EC50 [7]: 28.4 µM (active)
EC50 [8]: 29.3 µM (active)

COc1ccc(C)cc1C(=O)CCC(=O)Nc1ccccc1N1CCOCC1
EC50 [7]: 5.33 µM (active)
EC50 [8]: 7.32 µM (active)

COc1cccc(NC(=O)c2ccc3c(c2)OCCO3)c1
EC50 [11]: 15.7 µM (active)
EC50 [9]: 4.7 µM (active)
EC50 (BJ [12]): 18.2 µM (active)
EC50 [10]: 3.52 µM (active)
EC50 (BJ [13]): 20.9 µM (active)
EC50 (BJ [14]): > 150 µM (inconclusive)

COc1ccc(Oc2ccc(/C=C/C(=O)c3ccc(O)cc3)cc2[N+](=O)[O-])cc1
EC50 [7]: 2.14 µM (active)
EC50 [8]: 2.53 µM (active)

O=S(=O)(c1ccc(-c2csc(-c3cccnc3)n2)cc1)N1CCOCC1
IC50 (Fatty acid synthase [4]): 4.92 µM (active)

COc1cccc(C(c2sc3ncnn3c2O)N2CCN(C(=O)c3ccco3)CC2)c1 (stereo not given)
EC50 [9]: > 112 µM (not active)
EC50 [10]: > 112 µM (not active)

COC(=O)c1sc(-c2ccccc2)cc1NC(=O)c1cc(OC)cc(OC)c1
EC50 [7]: 21.7 µM (active)
EC50 [8]: 25.3 µM (active)

Nc1ccc(CCc2ccc(N)cc2)cc1
AC50 [2]: 1.91 µM (active)

Cc1cc(/C=C2\SC(N)=NC2=O)c(C)n1-c1ccccc1
EC50 [5]: 0.143 µM (active)
EC50 (H4): > 120 µM (not active)
EC50 [6]: 0.167 µM (active)

c1ccc(CSc2nnc(Cc3ccccc3)o2)cc1
EC50 [5]: 16.8 µM (active)
EC50 (H4): > 120 µM (not active)
EC50 [6]: 14.4 µM (active)

CCN(CC)c1ccc(NC(=O)C2CCCN(S(=O)(=O)c3cccnc3)C2)c(C)c1 (stereo not given)
AC50 [2]: 2.3 µM (active)

Cc1ccc(OCCC(=O)OCc2csc(CC(=O)Nc3ccccc3C)n2)cc1
EC50 [9]: > 112 µM (not active)
EC50 [10]: > 112 µM (not active)

C[C@H](O)[C@@H]1CN2CCc3c([nH]c4ccc(-c5ccc6c(c5)OCO6)cc34)[C@@H]2C[C@@H]1N(C)C(=O)NC1CCCCC1
AC50 (Paired box protein Pax-8): 5.9 µM (active)

N=c1n(CCO)c2ccccc2n1CCOc1ccc(Cl)cc1Cl
EC50 [7]: 8.45 µM (active)
EC50 [8]: 8.23 µM (active)

COC(=O)[C@]12CCCCC=C1N(Cc1ccc(Cl)cc1Cl)C(=O)[C@H](CC(=O)N1CCN(C(=O)c3ccco3)CC1)C2
AC50 (Paired box protein Pax-8): 1.33 µM (active)

Cc1nc2ccccc2[nH]c(=O)c1=NNc1ccccc1
EC50 [5]: > 120 µM (not active)
EC50 (H4): 19 µM (active)
EC50 [6]: 24.1 µM (active)

CC1CC(Nc2ccccc2)c2ccccc2N1C(=O)c1ccco1 (stereo not given)
AC50 [2]: 21.1 µM (active)

COc1cccc(C(=O)Nc2ccccc2N2CCCC2)c1
AC50 [2]: 1.54 µM (active)

O=C(NCC(c1cccnc1)N1CCN(c2ccccc2)CC1)c1ccco1 (stereo not given)
EC50 [15]: > 60 µM (not active)
EC50 [16]: 0.998 µM (active)
AC50 [2]: 3.08 µM (active)

Cc1nn(-c2ccc([N+](=O)[O-])cc2)c(O)c1/C=N/CCN1CCN(C(=O)c2ccccc2F)CC1
AC50 [1]: 5.72 µM (active)

CN1CCN(C(=O)c2ccc(COc3ccc(C(C)(C)C)cc3)o2)CC1
AC50 (Cytochrome P450 1A2): 12.6 µM (inconclusive)
AC50 (Cytochrome P450 2C9): 31.6 µM (inconclusive)
EC50 [5]: 0.148 µM (inconclusive)
AC50 (Cytochrome P450 2C19): 25.1 µM (inconclusive)
EC50 (H4): 35.2 µM (active)
EC50 [6]: 4.82 µM (active)

CCN1C/C(=C\c2cccc([N+](=O)[O-])c2)C(=O)/C(=C/c2cccc([N+](=O)[O-])c2)C1
AC50 [1]: 8.11 µM (active)
EC50 [7]: 0.187 µM (active)
EC50 [8]: 0.117 µM (active)

Fc1cc(Br)ccc1N=C(S)NCCc1ccccc1
EC50 [5]: 21.3 µM (active)
EC50 (H4): 27.5 µM (active)
EC50 [6]: 15.9 µM (active)

Cn1cc(S(=O)(=O)N2CCOCC2)cc1C(=O)Nc1cccc(Cl)c1
EC50 [9]: > 112 µM (not active)
EC50 [10]: > 112 µM (not active)

O=C1N=C(c2ccccc2)N(c2ccccc2)C(=O)/C1=C(/O)c1ccccc1
EC50 [5]: > 120 µM (not active)
EC50 (H4): > 120 µM (not active)
EC50 [6]: 19.2 µM (active)

O=C(Nc1ccccc1)c1cccc(N2CCCC2=O)c1
EC50 [9]: > 112 µM (not active)
EC50 [10]: 45.5 µM (active)

COc1ccc2c(c1)NP(=S)(Oc1ccccc1)N2 (stereo not given)
AC50 [2]: 2.02 µM (active)

CCN(CC)c1ccc(NC(=O)c2nc3nc(C)cc(C(F)F)n3n2)cc1
AC50 [2]: 1.51 µM (active)

COc1ccc(N2CCN(C(CNS(C)(=O)=O)c3ccco3)CC2)cc1 (stereo not given)
AC50 [2]: 4.67 µM (active)

OCCSc1nncn1/N=C/c1c[nH]c2ccccc12
EC50 [9]: > 112 µM (not active)
EC50 [10]: > 112 µM (not active)

O=C1C2CCN(CC2)C1Cc1ccc(OCCOc2ccccc2)cc1 (stereo not given)
EC50 [11]: > 150 µM (not active)
EC50 (BJ [12]): > 150 µM (not active)
EC50 (BJ [13]): > 150 µM (not active)
EC50 [17]: 30.6 µM (active)
EC50 (BJ [14]): > 150 µM (not active)
